Results taken from PubChem BioAssay (NCI).
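Exposure lasted 48 hours, with cells grown in 96-well plates and compounds tested at five concentrations. GI50: concentration for 50% inhibition of growth. TGI is the concentration that stops growth completely.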

Key:
Test in all cases: NCI anticancer screen, dose series, 48 h
[1] = test system: 786-0 renal
[2] = test system: A498 renal
[3] = test system: A549 NSCLC
[4] = test system: ACHN renal
[5] = test system: BT-549 breast
[6] = test system: CAKI-1 renal
[7] = test system: CCRF-CEM leukemia
[8] = test system: COLO 205 colon
[9] = test system: DU-145 prostate
[10] = test system: EKVX NSCLC
[11] = test system: HCC-2998 colon
[12] = test system: HCT-116 colon
[13] = test system: HCT-15 colon
[14] = test system: HL-60(TB) leukemia
[15] = test system: HOP-62 NSCLC
[16] = test system: HOP-92 NSCLC
[17] = test system: HS 578T breast
[18] = test system: HT29 colon
[19] = test system: IGROV1 ovarian
[20] = test system: K-562 leukemia
[21] = test system: KM12 colon
[22] = test system: LOX IMVI melanoma
[23] = test system: M14 melanoma
[24] = test system: MALME-3M melanoma
[25] = test system: MCF7 breast
[26] = test system: MDA-MB-231 breast
[27] = test system: MDA-MB-435
[28] = test system: MOLT-4 leukemia
[29] = test system: NCI-H226 lung
[30] = test system: NCI-H23 lung
[31] = test system: NCI-H460 lung
[32] = test system: NCI-H522 lung
[33] = test system: NCI/ADR-RES ovarian
[34] = test system: OVCAR-3 ovarian
[35] = test system: OVCAR-4 ovarian
[36] = test system: OVCAR-5 ovarian
[37] = test system: OVCAR-8 ovarian
[38] = test system: PC-3 prostate
[39] = test system: RPMI-8226 leukemia
[40] = test system: RXF 393 renal
[41] = test system: SF-268 CNS
[42] = test system: SF-295 CNS
[43] = test system: SF-539 CNS
[44] = test system: SK-MEL-2 melanoma
[45] = test system: SK-MEL-28 melanoma
[46] = test system: SK-MEL-5 melanoma
[47] = test system: SK-OV-3 ovarian
[48] = test system: SN12C renal
[49] = test system: SNB-19 CNS
[50] = test system: SNB-75 CNS
[51] = test system: SR leukemia
[52] = test system: SW-620 colon
[53] = test system: T-47D breast
[54] = test system: TK-10 renal
[55] = test system: U251 CNS
[56] = test system: UACC-257 melanoma
[57] = test system: UACC-62 melanoma
[58] = test system: UO-31 renal

Work on O=C(c1ccccc1)c1c(C(F)(F)F)n([O-])c2ccc(C(F)(F)F)cc2[n+]1=O yielded a GI50 [1] of 167 nM, a TGI [1] of 307 nM and a GI50 [2] of 1700 nM. It also gave a TGI [2] of 3.11 µM, a GI50 [3] of 140 nM and a TGI [3] of 278 nM. It also gave a GI50 [4] of 102 nM, a TGI [4] of 260 nM and a GI50 [5] of 125 nM. The TGI [5] was 269 nM, the GI50 [6] was 193 nM and the TGI [6] was 348 nM. For the same compound, the GI50 [7] was 281 nM, the TGI [7] was 1410 nM and the GI50 [8] was 384 nM. The TGI [8] was 879 nM, the GI50 [9] was 289 nM and the TGI [9] was 698 nM. For the same compound, the GI50 [10] was 234 nM, the TGI [10] was 597 nM and the GI50 [11] was 622 nM. The TGI [11] was 1280 nM, the GI50 [12] was 138 nM and the TGI [12] was 270 nM. The GI50 [13] was 277 nM, the TGI [13] was 711 nM and the GI50 [14] was 84 nM. It also gave a TGI [14] of 309 nM, a GI50 [15] of 347 nM and a TGI [15] of 765 nM. It also gave a GI50 [16] of 160 nM, a TGI [16] of 318 nM and a GI50 [17] of 537 nM. It also gave a TGI [17] of 1330 nM, a GI50 [18] of 177 nM and a TGI [18] of 349 nM. It also gave a GI50 [19] of 205 nM, a TGI [19] of 408 nM and a GI50 [20] of 319 nM. It also gave a TGI [20] of 779 nM, a GI50 [21] of 385 nM and a TGI [21] of 903 nM. It also gave a GI50 [22] of 51.3 nM, a TGI [22] of 95.4 nM and a GI50 [23] of 619 nM. For the same compound, the TGI [23] was 1470 nM, the GI50 [24] was 545 nM and the TGI [24] was 1200 nM. It also gave a GI50 [25] of 305 nM, a TGI [25] of 820 nM and a GI50 [26] of 185 nM. It also gave a TGI [26] of 354 nM, a GI50 [27] of 567 nM and a TGI [27] of 1280 nM. For the same compound, the GI50 [28] was 90.2 nM, the TGI [28] was 313 nM and the GI50 [29] was 524 nM. The TGI [29] was 1200 nM, the GI50 [30] was 503 nM and the TGI [30] was 1130 nM. The GI50 [31] was 232 nM, the TGI [31] was 587 nM and the GI50 [32] was 306 nM. For the same compound, the TGI [32] was 971 nM, the GI50 [33] was 239 nM and the TGI [33] was 688 nM. For the same compound, the GI50 [34] was 252 nM, the TGI [34] was 660 nM and the GI50 [35] was 156 nM. For the same compound, the TGI [35] was 360 nM, the GI50 [36] was 264 nM and the TGI [36] was 753 nM. The GI50 [37] was 1200 nM, the TGI [37] was 3.57 µM and the GI50 [38] was 94.8 nM. The TGI [38] was 229 nM, the GI50 [39] was 286 nM and the TGI [39] was 883 nM. It also gave a GI50 [40] of 175 nM, a TGI [40] of 342 nM and a GI50 [41] of 195 nM. The TGI [41] was 449 nM, the GI50 [42] was 548 nM and the TGI [42] was 1110 nM. The GI50 [43] was 315 nM, the TGI [43] was 745 nM and the GI50 [44] was 1240 nM. For the same compound, the TGI [44] was 2960 nM, the GI50 [45] was 507 nM and the TGI [45] was 957 nM. It also gave a GI50 [46] of 504 nM, a TGI [46] of 933 nM and a GI50 [47] of 988 nM. It also gave a TGI [47] of 2380 nM, a GI50 [48] of 215 nM and a TGI [48] of 468 nM. For the same compound, the GI50 [49] was 830 nM, the TGI [49] was 2100 nM and the GI50 [50] was 520 nM. The TGI [50] was 1130 nM, the GI50 [51] was 109 nM and the TGI [51] was 393 nM. It also gave a GI50 [52] of 135 nM, a TGI [52] of 279 nM and a GI50 [53] of 372 nM. The TGI [53] was 1080 nM, the GI50 [54] was 636 nM and the TGI [54] was 1350 nM. It also gave a GI50 [55] of 166 nM, a TGI [55] of 305 nM and a GI50 [56] of 295 nM. For the same compound, the TGI [56] was 968 nM, the GI50 [57] was 665 nM and the TGI [57] was 1860 nM. The GI50 [58] was 173 nM and the TGI [58] was 322 nM.
